In PubChem BioAssay AID1918946 (Molecular Pharmacology Branch, DTP, NCI, 2023):

Tested on: 885512-296-R-J2-PDC complex spheroid viability
Assay: Anticancer human tumor 885512-296-R-J2-PDC patient-derived breast carcinoma cell line growth inhibition
Settings: for IC50: curve of first compound; for viability, T/C: stronger effect = lower value
How it was run: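 Drug combinations with the LSD1 inhibitor iadademstat tested on tumor cells co-cultured as spheroids with endothelial cells and mesenchymal stem cells. Concentrations descended in half-log increments from clinical Cmax or 10 microM.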

[1] = second compound 0.1 µM, first compound 0.0316 µM
[2] = second compound 0.1 µM, first compound 0.1 µM
[3] = second compound 0.1 µM, first compound 0.316 µM
[4] = second compound 0.1 µM, first compound 1 µM
[5] = second compound 0.1 µM, first compound 3.16 µM
[6] = second compound 0.1 µM, first compound 10 µM
[7] = second compound 0.316 µM, first compound 0.0316 µM
[8] = second compound 0.316 µM, first compound 0.1 µM
[9] = second compound 0.316 µM, first compound 0.316 µM
[10] = second compound 0.316 µM, first compound 1 µM
[11] = second compound 0.316 µM, first compound 3.16 µM
[12] = second compound 0.316 µM, first compound 10 µM
[13] = second compound 1 µM, first compound 0.0316 µM
[14] = second compound 1 µM, first compound 0.1 µM
[15] = second compound 1 µM, first compound 0.316 µM
[16] = second compound 1 µM, first compound 1 µM
[17] = second compound 1 µM, first compound 3.16 µM
[18] = second compound 1 µM, first compound 10 µM
[19] = second compound 3.16 µM, first compound 0.0316 µM
[20] = second compound 3.16 µM, first compound 0.1 µM
[21] = second compound 3.16 µM, first compound 0.316 µM
[22] = second compound 3.16 µM, first compound 1 µM
[23] = second compound 3.16 µM, first compound 3.16 µM
[24] = second compound 3.16 µM, first compound 10 µM
[25] = second compound 10 µM, first compound 0.0316 µM
[26] = second compound 10 µM, first compound 0.1 µM
[27] = second compound 10 µM, first compound 0.316 µM
[28] = second compound 10 µM, first compound 1 µM
[29] = second compound 10 µM, first compound 3.16 µM
[30] = second compound 10 µM, first compound 10 µM
[31] = second compound 0.1 µM, first compound 0.00949 µM
[32] = second compound 0.1 µM, first compound 0.03 µM
[33] = second compound 0.1 µM, first compound 0.0949 µM
[34] = second compound 0.1 µM, first compound 0.3 µM
[35] = second compound 0.316 µM, first compound 0.00949 µM
[36] = second compound 0.316 µM, first compound 0.03 µM
[37] = second compound 0.316 µM, first compound 0.0949 µM
[38] = second compound 0.316 µM, first compound 0.3 µM
[39] = second compound 1 µM, first compound 0.00949 µM
[40] = second compound 1 µM, first compound 0.03 µM
[41] = second compound 1 µM, first compound 0.0949 µM
[42] = second compound 1 µM, first compound 0.3 µM
[43] = second compound 3.16 µM, first compound 0.00949 µM
[44] = second compound 3.16 µM, first compound 0.03 µM
[45] = second compound 3.16 µM, first compound 0.0949 µM
[46] = second compound 3.16 µM, first compound 0.3 µM
[47] = second compound 10 µM, first compound 0.00949 µM
[48] = second compound 10 µM, first compound 0.03 µM
[49] = second compound 10 µM, first compound 0.0949 µM
[50] = second compound 10 µM, first compound 0.3 µM
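Further: spheroids exposed to agents for 7 days before viability read.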

`CC1(C)CCC(CN2CCN(c3ccc(C(=O)NS(=O)(=O)c4ccc(NCC5CCOCC5)c([N+](=O)[O-])c4)c(Oc4cnc5[nH]ccc5c4)c3)CC2)=C(c2ccc(Cl)cc2)C1` + NC1CCC(NC2CC2c2ccccc2)CC1 was tested, and the IC50 (second compound 0.1 µM) was 4990 nM, the IC50 (second compound 0.316 µM) was 4830 nM and the IC50 (second compound 1 µM) was 4900 nM. The IC50 (second compound 3.16 µM) was 4940 nM, the IC50 (second compound 10 µM) was 3840 nM and the viability, T/C [1] was 106%. It also gave a viability, T/C [2] of 109%, a viability, T/C [3] of 115% and a viability, T/C [4] of 98.9%. For the same molecule, the viability, T/C [5] was 72.8%, the viability, T/C [6] was 15.8% and the viability, T/C [7] was 112%. For the same molecule, the viability, T/C [8] was 116%, the viability, T/C [9] was 120% and the viability, T/C [10] was 90.1%. For the same molecule, the viability, T/C [11] was 72.2%, the viability, T/C [12] was 16% and the viability, T/C [13] was 110%. The viability, T/C [14] was 115%, the viability, T/C [15] was 116% and the viability, T/C [16] was 93.4%. For the same molecule, the viability, T/C [17] was 73.1%, the viability, T/C [18] was 14.7% and the viability, T/C [19] was 111%. It also gave a viability, T/C [20] of 107%, a viability, T/C [21] of 114% and a viability, T/C [22] of 98.7%. For the same molecule, the viability, T/C [23] was 71%, the viability, T/C [24] was 17.4% and the viability, T/C [25] was 84.3%. It also gave a viability, T/C [26] of 82.8%, a viability, T/C [27] of 77.9% and a viability, T/C [28] of 87.4%. For the same molecule, the viability, T/C [29] was 56.2% and the viability, T/C [30] was 19.9%.
With `CC1COCCN1c1cc(C2(S(C)(=N)=O)CC2)nc(-c2ccnc3[nH]ccc23)n1` (stereo not given) + NC1CCC(NC2CC2c2ccccc2)CC1 the IC50 (second compound 0.1 µM) was 166 nM, the IC50 (second compound 0.316 µM) was 155 nM and the IC50 (second compound 1 µM) was 166 nM. The IC50 (second compound 3.16 µM) was 119 nM, the IC50 (second compound 10 µM) was 124 nM and the viability, T/C [1] was 98.8%. The viability, T/C [2] was 77.3%, the viability, T/C [3] was 15.1% and the viability, T/C [4] was 7.78%. The viability, T/C [5] was 9.98%, the viability, T/C [6] was 4.57% and the viability, T/C [7] was 94.7%. The viability, T/C [8] was 71.4%, the viability, T/C [9] was 15.3% and the viability, T/C [10] was 4.43%. The viability, T/C [11] was 4.53%, the viability, T/C [12] was 7.27% and the viability, T/C [13] was 98.8%. For the same molecule, the viability, T/C [14] was 75.8%, the viability, T/C [15] was 17.4% and the viability, T/C [16] was 5.72%. It also gave a viability, T/C [17] of 7%, a viability, T/C [18] of 4.61% and a viability, T/C [19] of 108%. The viability, T/C [20] was 56.5%, the viability, T/C [21] was 13.4% and the viability, T/C [22] was 5.73%. The viability, T/C [23] was 4.8%, the viability, T/C [24] was 4.21% and the viability, T/C [25] was 84.5%. For the same molecule, the viability, T/C [26] was 59.1%, the viability, T/C [27] was 9.91% and the viability, T/C [28] was 3.2%. The viability, T/C [29] was 3.14% and the viability, T/C [30] was 1.66%.
Work on `CCN(c1cc(-c2ccc(CN3CCOCC3)cc2)cc(C(=O)NCc2c(C)cc(C)[nH]c2=O)c1C)C1CCOCC1` + NC1CCC(NC2CC2c2ccccc2)CC1 yielded an IC50 (second compound 0.1 µM) of 1820 nM, an IC50 (second compound 0.316 µM) of 1740 nM and an IC50 (second compound 1 µM) of 2250 nM. The IC50 (second compound 3.16 µM) was 2080 nM, the IC50 (second compound 10 µM) was > 3000 nM and the viability, T/C [31] was 118%. The viability, T/C [32] was 135%, the viability, T/C [33] was 104% and the viability, T/C [34] was 117%. The viability, T/C (second compound 0.1 µM, first compound 0.949 µM) was 98.6%, the viability, T/C (second compound 0.1 µM, first compound 3 µM) was 12.3% and the viability, T/C [35] was 131%. The viability, T/C [36] was 114%, the viability, T/C [37] was 127% and the viability, T/C [38] was 94.5%. The viability, T/C (second compound 0.316 µM, first compound 0.949 µM) was 79.1%, the viability, T/C (second compound 0.316 µM, first compound 3 µM) was 26.1% and the viability, T/C [39] was 135%. It also gave a viability, T/C [40] of 107%, a viability, T/C [41] of 122% and a viability, T/C [42] of 87.2%. The viability, T/C (second compound 1 µM, first compound 0.949 µM) was 80.2%, the viability, T/C (second compound 1 µM, first compound 3 µM) was 39.9% and the viability, T/C [43] was 141%. For the same molecule, the viability, T/C [44] was 125%, the viability, T/C [45] was 106% and the viability, T/C [46] was 102%. The viability, T/C (second compound 3.16 µM, first compound 0.949 µM) was 78.3%, the viability, T/C (second compound 3.16 µM, first compound 3 µM) was 35.8% and the viability, T/C [47] was 110%. For the same molecule, the viability, T/C [48] was 95.4%, the viability, T/C [49] was 85.8% and the viability, T/C [50] was 82.7%. It also gave a viability, T/C (second compound 10 µM, first compound 0.949 µM) of 78.5% and a viability, T/C (second compound 10 µM, first compound 3 µM) of 55%.
With `Nc1ncn(C2CC(O)C(CO)S2)c(=O)n1` (stereo not given) + NC1CCC(NC2CC2c2ccccc2)CC1 the IC50 (second compound 0.1 µM) was 5.37 nM, the IC50 (second compound 0.316 µM) was 4.73 nM and the IC50 (second compound 1 µM) was 4.84 nM. For the same molecule, the IC50 (second compound 3.16 µM) was 4.82 nM, the IC50 (second compound 10 µM) was 2.75 nM and the viability, T/C (second compound 0.1 µM, first compound 0.000949 µM) was 81.1%. The viability, T/C (second compound 0.1 µM, first compound 0.003 µM) was 67.9%, the viability, T/C [31] was 32.5% and the viability, T/C [32] was 15.5%. For the same molecule, the viability, T/C [33] was 12.6%, the viability, T/C [34] was 11.3% and the viability, T/C (second compound 0.316 µM, first compound 0.000949 µM) was 93%. It also gave a viability, T/C (second compound 0.316 µM, first compound 0.003 µM) of 59%, a viability, T/C [35] of 36.4% and a viability, T/C [36] of 20.6%. For the same molecule, the viability, T/C [37] was 12.4%, the viability, T/C [38] was 10% and the viability, T/C (second compound 1 µM, first compound 0.000949 µM) was 99.2%. It also gave a viability, T/C (second compound 1 µM, first compound 0.003 µM) of 62.2%, a viability, T/C [39] of 32.8% and a viability, T/C [40] of 17.3%. The viability, T/C [41] was 11.5%, the viability, T/C [42] was 6.83% and the viability, T/C (second compound 3.16 µM, first compound 0.000949 µM) was 83%. For the same molecule, the viability, T/C (second compound 3.16 µM, first compound 0.003 µM) was 61.6%, the viability, T/C [43] was 33.3% and the viability, T/C [44] was 18.8%. For the same molecule, the viability, T/C [45] was 12.4%, the viability, T/C [46] was 8.51% and the viability, T/C (second compound 10 µM, first compound 0.000949 µM) was 79.8%. The viability, T/C (second compound 10 µM, first compound 0.003 µM) was 47.5%, the viability, T/C [47] was 23.8% and the viability, T/C [48] was 11.2%. It also gave a viability, T/C [49] of 9.62% and a viability, T/C [50] of 6.05%.
With `O=C(C=Cn1cnc(-c2cc(C(F)(F)F)cc(C(F)(F)F)c2)n1)NNc1cnccn1` + NC1CCC(NC2CC2c2ccccc2)CC1 the IC50 (second compound 0.1 µM) was < 3.16 nM, the IC50 (second compound 0.316 µM) was < 3.16 nM and the IC50 (second compound 1 µM) was < 3.16 nM. The IC50 (second compound 3.16 µM) was < 3.16 nM, the IC50 (second compound 10 µM) was < 3.16 nM and the viability, T/C (second compound 0.1 µM, first compound 0.00316 µM) was 34%. For the same molecule, the viability, T/C (second compound 0.1 µM, first compound 0.01 µM) was 7.13%, the viability, T/C [1] was 7% and the viability, T/C [2] was 5.05%. For the same molecule, the viability, T/C [3] was 5.84%, the viability, T/C [4] was 8.68% and the viability, T/C (second compound 0.316 µM, first compound 0.00316 µM) was 36.5%. For the same molecule, the viability, T/C (second compound 0.316 µM, first compound 0.01 µM) was 6.98%, the viability, T/C [7] was 4.07% and the viability, T/C [8] was 1.21%. It also gave a viability, T/C [9] of 8.2%, a viability, T/C [10] of 6.75% and a viability, T/C (second compound 1 µM, first compound 0.00316 µM) of 47.5%. It also gave a viability, T/C (second compound 1 µM, first compound 0.01 µM) of 6.6%, a viability, T/C [13] of 1.46% and a viability, T/C [14] of 1.03%. The viability, T/C [15] was 3.55%, the viability, T/C [16] was 0.74% and the viability, T/C (second compound 3.16 µM, first compound 0.00316 µM) was 26.8%. It also gave a viability, T/C (second compound 3.16 µM, first compound 0.01 µM) of 6.99%, a viability, T/C [19] of 1.67% and a viability, T/C [20] of 0.99%. It also gave a viability, T/C [21] of 0.76%, a viability, T/C [22] of 3.58% and a viability, T/C (second compound 10 µM, first compound 0.00316 µM) of 26.8%. It also gave a viability, T/C (second compound 10 µM, first compound 0.01 µM) of 7.4%, a viability, T/C [25] of 1.17% and a viability, T/C [26] of 0.87%. It also gave a viability, T/C [27] of 2.75% and a viability, T/C [28] of 0.69%.
